According to patent publication US6667387B1, “HCV core peptides” (priority 1992, dated 2003):
Ends that are not written are not given here.

Experiments:
[1] = ELISA with seronegative / negative control sera (specificity); format: binding, human
How it was run: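 Specificity readout is OD at 450 nm (HRP goat anti-human Ig, TMB/H2O2, sulfuric acid stop), with ≥0.250 counted positive. Seronegative donor sera (typically 1:100, 1 h, 37° C) were applied to casein-blocked wells coated with peptide directly or via streptavidin capture of biotinylated peptide.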

[2] = system: antibodies in sera from HCV-seropositive donors; test: ELISA with HCV antibody-positive sera (biotinylated peptides on streptavidin- or avidin-coated plates, unbiotinylated peptides coated directly); format: binding, human; conditions: for PEPTIDE ELISA (O.D.): Table 12, biotinylated 20-mers
How it was run: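 Read-out is OD at 450 nm after HRP goat anti-human Ig and TMB development, following 1 h at 37° C. with seropositive or negative sera diluted 1:100 (or 20-fold). Antigen was either unbiotinylated peptide adsorbed on plastic (pH 9.6 carbonate, 2–5 or 3 μg/ml) or biotinylated peptide at 1 μg/ml captured on streptavidin-coated wells, with casein blocking.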

In the case of ETWKKPDYEPPVVHGCPLPP, the “optical density (450 nm)” value ([1]; Table 4G, negative serum) is reported as 0.001, the “optical density (450 nm)” value ([1]; Table 5, sample 1747 (negative), peptide concentration 0.01 micrograms per milliliter, listed as HCV peptide XVIII) is reported as 0.042 and the “optical density (450 nm)” value ([1]; Table 5, sample 1747 (negative), peptide concentration 0.03 micrograms per milliliter, listed as HCV peptide XVIII) is reported as 0.058. The “optical density (450 nm)” value ([1]; Table 5, sample 1747 (negative), peptide concentration 0.1 micrograms per milliliter, listed as HCV peptide XVIII) was 0.044, the “optical density (450 nm)” value ([1]; Table 5, sample 1747 (negative), peptide concentration 0.3 micrograms per milliliter, listed as HCV peptide XVIII) was 0.061 and the “optical density (450 nm)” value ([1]; Table 5, sample 1747 (negative), peptide concentration 1.0 micrograms per milliliter, listed as HCV peptide XVIII) was 0.042. For the same sequence, the “optical density (450 nm)” value ([1]; Table 5, sample 1747 (negative), peptide concentration 3.0 micrograms per milliliter, listed as HCV peptide XVIII) was 0.047, the “optical density (450 nm)” value ([1]; Table 5, sample 1781 (negative), peptide concentration 0.01 micrograms per milliliter, listed as HCV peptide XVIII) was 0.045 and the “optical density (450 nm)” value ([1]; Table 5, sample 1781 (negative), peptide concentration 0.03 micrograms per milliliter) was 0.051. For the same sequence, the “optical density (450 nm)” value ([1]; Table 5, sample 1781 (negative), peptide concentration 0.1 micrograms per milliliter, listed as HCV peptide XVIII) was 0.048, the “optical density (450 nm)” value ([1]; Table 5, sample 1781 (negative), peptide concentration 0.3 micrograms per milliliter, listed as HCV peptide XVIII) was 0.048 and the “optical density (450 nm)” value ([1]; Table 5, sample 1781 (negative), peptide concentration 1.0 micrograms per milliliter, listed as HCV peptide XVIII) was 0.048. The “optical density (450 nm)” value ([1]; Table 5, sample 1781 (negative), peptide concentration 3.0 micrograms per milliliter, listed as HCV peptide XVIII) was 0.053, the “optical density (450 nm)” value ([1]; Table 8, serum 1782 (blood donor), Avidin) was 0.053 and the “optical density (450 nm)” value ([1]; Table 8, serum 1784 (blood donor), Avidin) was 0.047. The “optical density (450 nm)” value ([1]; Table 8, serum 1785 (blood donor), Avidin) was 0.047, the “optical density (450 nm)” value ([1]; Table 8, serum 1794 (blood donor), Avidin) was 0.104 and the “optical density (450 nm)” value ([2]; Table 4G, serum 1, 20-fold dilution) was 2.691. The “optical density (450 nm)” value ([2]; Table 4G, serum 33, 20-fold dilution) was 1.813, the “optical density (450 nm)” value ([2]; Table 4G, serum 39, 20-fold dilution) was 0.213 and the “optical density (450 nm)” value ([2]; Table 4G, serum 47, 20-fold dilution) was 2.611. For the same sequence, the “optical density (450 nm)” value ([2]; Table 4G, serum 79, 20-fold dilution) was 2.105, the “optical density (450 nm)” value ([2]; Table 4G, serum 83, 20-fold dilution) was 1.232 and the “optical density (450 nm)” value ([2]; Table 4G, serum 88, 20-fold dilution) was 1.858. The “optical density (450 nm)” value ([2]; Table 4G, serum 89, 20-fold dilution) was 2.309, the “optical density (450 nm)” value ([2]; Table 4G, serum 91, 20-fold dilution) was 1.132 and the “optical density (450 nm)” value ([2]; Table 4G, serum 99, 20-fold dilution) was 1.526. The “optical density (450 nm)” value ([2]; Table 4G, serum 104, 20-fold dilution) was 1.998, the “optical density (450 nm)” value ([2]; Table 4G, serum 105, 20-fold dilution) was 2.053 and the “optical density (450 nm)” value ([2]; Table 4G, serum 110, 20-fold dilution) was 2.065. The “optical density (450 nm)” value ([2]; Table 4G, serum 111, 20-fold dilution) was 1.542, the “optical density (450 nm)” value ([2]; Table 4G, serum 112, 20-fold dilution) was 1.408 and the “optical density (450 nm)” value ([2]; Table 4G, serum 116, 20-fold dilution) was 1.978. The “optical density (450 nm)” value ([2]; Table 4G, serum 120, 20-fold dilution) was 2.031, the “optical density (450 nm)” value ([2]; Table 5, sample 8242 (positive), peptide concentration 0.01 micrograms per milliliter, listed as HCV peptide XVIII) was 1.185 and the “optical density (450 nm)” value ([2]; Table 5, sample 8242 (positive), peptide concentration 0.03 micrograms per milliliter, listed as HCV peptide XVIII) was 1.188. The “optical density (450 nm)” value ([2]; Table 5, sample 8242 (positive), peptide concentration 0.1 micrograms per milliliter, listed as HCV peptide XVIII) was 0.946, the “optical density (450 nm)” value ([2]; Table 5, sample 8242 (positive), peptide concentration 0.3 micrograms per milliliter, listed as HCV peptide XVIII) was 0.873 and the “optical density (450 nm)” value ([2]; Table 5, sample 8242 (positive), peptide concentration 1.0 micrograms per milliliter, listed as HCV peptide XVIII) was 0.839. The “optical density (450 nm)” value ([2]; Table 5, sample 8242 (positive), peptide concentration 3.0 micrograms per milliliter, listed as HCV peptide XVIII) was 0.749, the “optical density (450 nm)” value ([2]; Table 5, sample 8243 (positive), peptide concentration 0.01 micrograms per milliliter, listed as HCV peptide XVIII) was 0.462 and the “optical density (450 nm)” value ([2]; Table 5, sample 8243 (positive), peptide concentration 0.03 micrograms per milliliter, listed as HCV peptide XVIII) was 0.611. For the same sequence, the “optical density (450 nm)” value ([2]; Table 5, sample 8243 (positive), peptide concentration 0.1 micrograms per milliliter, listed as HCV peptide XVIII) was 0.661, the “optical density (450 nm)” value ([2]; Table 5, sample 8243 (positive), peptide concentration 0.3 micrograms per milliliter, listed as HCV peptide XVIII) was 0.629 and the “optical density (450 nm)” value ([2]; Table 5, sample 8243 (positive), peptide concentration 1.0 micrograms per milliliter, listed as HCV peptide XVIII) was 0.627. For the same sequence, the “optical density (450 nm)” value ([2]; Table 5, sample 8243 (positive), peptide concentration 3.0 micrograms per milliliter, listed as HCV peptide XVIII) was 0.671, the “optical density (450 nm)” value ([2]; Table 5, sample 8318 (positive), peptide concentration 0.01 micrograms per milliliter, listed as HCV peptide XVIII) was 1.711 and the “optical density (450 nm)” value ([2]; Table 5, sample 8318 (positive), peptide concentration 0.03 micrograms per milliliter, listed as HCV peptide XVIII) was 2.308. The “optical density (450 nm)” value ([2]; Table 5, sample 8318 (positive), peptide concentration 0.1 micrograms per milliliter, listed as HCV peptide XVIII) was 2.409, the “optical density (450 nm)” value ([2]; Table 5, sample 8318 (positive), peptide concentration 0.3 micrograms per milliliter, listed as HCV peptide XVIII) was 2.392 and the “optical density (450 nm)” value ([2]; Table 5, sample 8318 (positive), peptide concentration 1.0 micrograms per milliliter, listed as HCV peptide XVIII) was 2.396. The “optical density (450 nm)” value ([2]; Table 5, sample 8318 (positive), peptide concentration 3.0 micrograms per milliliter, listed as HCV peptide XVIII) was 2.391, the “optical density (450 nm)” value ([2]; Table 5, sample 8326 (positive), peptide concentration 0.01 micrograms per milliliter, listed as HCV peptide XVIII) was 1.848 and the “optical density (450 nm)” value ([2]; Table 5, sample 8326 (positive), peptide concentration 0.03 micrograms per milliliter, listed as HCV peptide XVIII) was 2.219. For the same sequence, the “optical density (450 nm)” value ([2]; Table 5, sample 8326 (positive), peptide concentration 0.1 micrograms per milliliter, listed as HCV peptide XVIII) was 2.331, the “optical density (450 nm)” value ([2]; Table 5, sample 8326 (positive), peptide concentration 0.3 micrograms per milliliter, listed as HCV peptide XVIII) was 2.331 and the “optical density (450 nm)” value ([2]; Table 5, sample 8326 (positive), peptide concentration 1.0 micrograms per milliliter, listed as HCV peptide XVIII) was 2.331. For the same sequence, the “optical density (450 nm)” value ([2]; Table 5, sample 8326 (positive), peptide concentration 3.0 micrograms per milliliter, listed as HCV peptide XVIII) was 2.315, the “optical density (450 nm)” value ([2]; Table 8, serum 8243 (HCV), Avidin) was 0.118 and the “optical density (450 nm)” value ([2]; Table 8, serum 8247 (HCV), Avidin) was 0.046. For the same sequence, the “optical density (450 nm)” value ([2]; Table 8, serum 8248 (HCV), Avidin) was 0.905, the “optical density (450 nm)” value ([2]; Table 8, serum 8269 (HCV), Avidin) was 1.513 and the “optical density (450 nm)” value ([2]; Table 8, serum 8273 (HCV), Avidin) was 0.052. The “optical density (450 nm)” value ([2]; Table 8, serum 8278 (HCV), Avidin) was 0.052, the “optical density (450 nm)” value ([2]; Table 8, serum 8285 (HCV), Avidin) was 0.146 and the “optical density (450 nm)” value ([2]; Table 8, serum 8290 (HCV), Avidin) was 2.323. For the same sequence, the “optical density (450 nm)” value ([2]; Table 8, serum 8291 (HCV), Avidin) was 0.049, the “PEPTIDE ELISA (O.D.)” value ([2]; serum 0843) was 0.127 and the “PEPTIDE ELISA (O.D.)” value ([2]; serum 8240) was 1.511. For the same sequence, the “PEPTIDE ELISA (O.D.)” value ([2]; serum 8241) was 0.273, the “PEPTIDE ELISA (O.D.)” value ([2]; serum 8242) was 2.453 and the “PEPTIDE ELISA (O.D.)” value ([2]; serum 8332) was 2.290. For the same sequence, the “PEPTIDE ELISA (O.D.)” value ([2]; serum 8339) was 2.757, the “PEPTIDE ELISA (O.D.)” value ([2]; serum 8350) was 0.182 and the “PEPTIDE ELISA (O.D.)” value ([2]; serum 8377) was 1.378. For the same sequence, the “PEPTIDE ELISA (O.D.)” value ([2]; serum 8378) was 2.337 and the “PEPTIDE ELISA (O.D.)” value ([2]; serum 8388) was 2.358.
